Literature values as cited in patent US12133854B2 (SLAYBACK PHARMA LLC, priority 2021, dated 2024).
In brackets after ≈: the same amount, converted by molar mass. Entries after “also recorded” stand apart in the source; their conditions may differ. Where two headings read alike, the source gives them in different places.

- Solubility in methanol, chloroform and acetone: very soluble
- Solubility (above pH 2.5): less than 1 mg/mL
- Solubility (in acid, pH 1.5): ~25 mg/mL (≈ 58.2 mM)
Compound: CC#C[C@]1(O)CC[C@H]2[C@@H]3CCC4=CC(=O)CCC4=C3[C@@H](c3ccc(N(C)C)cc3)C[C@@]21C [Mifepristone, 11β-(4-dimethylaminophenyl)-17β-hydroxy-17α-(1-propynyl)-estra-4,9-dien-3-one]
- Solubility in water: practically insoluble; also recorded: low aqueous solubility
